Positions of bridges follow the written chain, without caps; N, C: chain ends. Non-standard residues stand in square brackets, D forms with d. Residues, ends and D or L forms follow the SMILES beside them. *: point of attachment. hPhe(3,5-F2-4-CF3) = N[C@@H](CCc1cc(F)c(C(F)(F)F)c(F)c1)C(=O)O; hPhe(3-Cl-4-CF3) = N[C@@H](CCc1ccc(C(F)(F)F)c(Cl)c1)C(=O)O; NMePhe(4-CF3) = CN[C@@H](Cc1ccc(C(F)(F)F)cc1)C(=O)O; Piperazinyl(4-(3-oxetanyl)) = C1OCC1N1CCN(*)CC1; Phe(2-F,5-Br) = N[C@@H](Cc1cc(Br)ccc1F)C(=O)O; 3Oxa8azabicyclo(3.2.1)octane = C1CC2COCC1N2*; NMeAbu(4,4,4-F3) = CN[C@@H](CC(F)(F)F)C(=O)O; Phe(2,6-F2) = N[C@@H](Cc1c(F)cccc1F)C(=O)O; NMeAla(cPent) = CN[C@@H](CC1CCCC1)C(=O)O; Phe(3-I) = N[C@@H](Cc1cccc(I)c1)C(=O)O; Pro(4,4-F2) = O=C(O)[C@@H]1CC(F)(F)CN1; NMeY = CN[C@@H](Cc1ccc(O)cc1)C(=O)O; NMeCha = CN[C@@H](CC1CCCCC1)C(=O)O; NMeChg = CN[C@H](C(=O)O)C1CCCCC1; NMeF = CN[C@@H](Cc1ccccc1)C(=O)O; NMeI = CC[C@H](C)[C@H](NC)C(=O)O; NMeD = CN[C@@H](CC(=O)O)C(=O)O; NMeL = CN[C@@H](CC(C)C)C(=O)O; d(β3hP) = O=C(O)C[C@H]1CCCN1; NMeAbu = CC[C@H](NC)C(=O)O; Morpholide = C1CN(*)CCO1; NMeA = CN[C@@H](C)C(=O)O; NMeAib = CNC(C)(C)C(=O)O; Nle = CCCC[C@H](N)C(=O)O; Piperidide = C1CCN(*)CC1; Pra = C#CC[C@H](N)C(=O)O; Pyrrolidide = C1CCN(*)C1; Ac5c = NC1(C(=O)O)CCCC1; Aze = O=C(O)[C@@H]1CCN1; X1 = FC1(F)CN(*)CC1(F)F; Ac4c = NC1(C(=O)O)CCC1; Sar = CNCC(=O)O

For this assay, the target named is T1, Kras and SOS1 (biotin-tagged human Kras loaded with GDP, His-tagged human SOS1) (Homo sapiens, UniProt P01116, G12D).
T1 construct: made in house; host or cells: E. coli (stated for Kras only)
T1 sequence (P01116 1-188 isoform P01116-2 G12D): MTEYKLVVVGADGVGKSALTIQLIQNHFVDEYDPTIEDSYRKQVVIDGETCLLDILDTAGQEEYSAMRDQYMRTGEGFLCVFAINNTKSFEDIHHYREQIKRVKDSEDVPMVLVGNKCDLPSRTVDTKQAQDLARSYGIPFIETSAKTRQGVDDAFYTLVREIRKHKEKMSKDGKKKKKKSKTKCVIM
Description: Protein-protein interaction inhibition between Kras and SOS1 (KrasGl2D-SOS PPI) using AlphaScreen. Type of assay: binding. Conditions: AlphaScreen; biotin-tagged human Kras loaded with GDP, His-tagged human SOS1; read-out: KRAS G12D-SOS PPI IC50. The gist of the method: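 Binding between SOS1 and Kras is detected as bead-proximity luminescence: illuminate Ni-conjugated donors (680 nm), collect 520-620 nm emission from streptavidin-conjugated acceptors; Kras carries biotin and GDP loaded after purification, SOS1 carries a His tag.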
In general terms: Alpha assays give light when donor and acceptor beads are brought close together.
`CC[C@H](C)[C@@H]1NC(=O)[C@H](CC(C)C)N(C)C(=O)C[C@@H](C(=O)N2CC(F)(F)C(F)(F)C2)NC(=O)[C@H]([C@@H](C)CC)N(C)C(=O)C2(CCCC2)NC(=O)[C@@H]2CCCN2C(=O)[C@H](CCc2ccc(C(F)(F)F)c(Cl)c2)NC(=O)CN(C)C(=O)[C@H](CC2CCCCC2)N(C)C(=O)CN(C)C(=O)CN(C)C1=O` [Compound 1168] ([NMeL]I[Sar][Sar][NMeCha][Sar][hPhe(3-Cl-4-CF3)]P[Ac5c][NMeI]D-X1; lactam N-11): the IC50 was 100 nM.

As to `C#CC[C@@H]1NC(=O)[C@H](Cc2cccc(I)c2)NC(=O)CN(C)C(=O)[C@H](Cc2ccc(OC)cc2)N(C)C(=O)CN(C)C(=O)CN(C)C(=O)[C@H]([C@@H](C)CC)NC(=O)[C@H](CC(C)C)N(C)C(=O)C[C@@H](C(=O)N2CCCCC2)N(C)C(=O)[C@H](CC(C)C)NC(=O)C(C)(C)N(C)C1=O` [Compound 1169] ([NMeL]I[Sar][Sar][NMeY](Me)[Sar][Phe(3-I)][Pra][NMeAib]L[NMeD]-Piperidide; lactam N-11), the IC50 turned out to be 53 nM.

In the case of `CCCC[C@@H]1NC(=O)[C@H](Cc2cc(Br)ccc2F)NC(=O)CN(C)C(=O)[C@H](Cc2ccc(OC)cc2)N(C)C(=O)[C@@H]2CCN2C(=O)[C@H](C)N(C)C(=O)[C@H]([C@@H](C)CC)NC(=O)[C@H](CC)N(C)C(=O)C[C@@H](C(=O)N2CCCCC2)N(C)C(=O)[C@H](CC(C)C)NC(=O)C(C)(C)N(C)C1=O` [Compound 1177] ([NMeAbu]I[NMeA][Aze][NMeY](Me)[Sar][Phe(2-F,5-Br)][Nle][NMeAib]L[NMeD]-Piperidide; lactam N-11), the IC50 was found to be 12 nM.

On to `CC[C@H](C)[C@@H]1NC(=O)[C@H](CC(C)C)N(C)C(=O)C[C@@H](C(=O)N2C3CCC2COC3)N(C)C(=O)[C@H](C2CCCCC2)N(C)C(=O)C2(CCCC2)NC(=O)[C@@H]2CC(F)(F)CN2C(=O)[C@H](CCc2ccc(C(F)(F)F)c(Cl)c2)NC(=O)CN(C)C(=O)[C@H](CC2CCCCC2)N(C)C(=O)CN(C)C(=O)CN(C)C1=O` [Compound 1179] ([NMeL]I[Sar][Sar][NMeCha][Sar][hPhe(3-Cl-4-CF3)][Pro(4,4-F2)][Ac5c][NMeChg][NMeD]-{3Oxa8azabicyclo(3.2.1)octane}; lactam N-11), for which the half-maximal inhibitory concentration (IC50) amounted to 0.52 nM.

On to `CC[C@H](C)[C@@H]1NC(=O)[C@H](CC(F)(F)F)N(C)C(=O)C[C@@H](C(=O)N2CCOCC2)N(C)C(=O)[C@H](C2CCCCC2)N(C)C(=O)C2(CCCC2)NC(=O)[C@@H]2CC(F)(F)CN2C(=O)[C@H](CCc2ccc(C(F)(F)F)c(Cl)c2)NC(=O)CN(C)C(=O)[C@H](Cc2ccc(C(F)(F)F)cc2)N(C)C(=O)CN(C)C(=O)CN(C)C1=O` [Compound 1182] ([NMeAbu(4,4,4-F3)]I[Sar][Sar][NMePhe(4-CF3)][Sar][hPhe(3-Cl-4-CF3)][Pro(4,4-F2)][Ac5c][NMeChg][NMeD]-Morpholide; lactam N-11), for which the IC50 stood at 0.56 nM.

`CC[C@H](C)[C@@H]1NC(=O)[C@H](CC2CCCC2)N(C)C(=O)C[C@@H](C(=O)N2CCCC2)N(C)C(=O)[C@H]([C@@H](C)CC)N(C)C(=O)C2(CCCC2)NC(=O)[C@@H]2CCCN2C(=O)[C@H](CCc2ccc(C(F)(F)F)c(Cl)c2)NC(=O)CN(C)C(=O)[C@H](Cc2ccc(C(F)(F)F)cc2)N(C)C(=O)[C@@H]2CCN2C(=O)[C@H](C)N(C)C1=O` [Compound 1183] ([NMeAla(cPent)]I[NMeA][Aze][NMePhe(4-CF3)][Sar][hPhe(3-Cl-4-CF3)]P[Ac5c][NMeI][NMeD]-Pyrrolidide; lactam N-11): the IC50 came out at 0.73 nM.

With `C#CC[C@@H]1NC(=O)[C@H](Cc2cccc(I)c2)NC(=O)CN(C)C(=O)[C@H](Cc2ccccc2)N(C)C(=O)CN(C)C(=O)CN(C)C(=O)[C@H]([C@@H](C)CC)NC(=O)[C@H](CC(C)C)N(C)C(=O)C[C@@H](C(=O)N2CCCCC2)N(C)C(=O)[C@H](CC(C)C)NC(=O)C(C)(C)N(C)C1=O` [Compound 1184] ([NMeL]I[Sar][Sar][NMeF][Sar][Phe(3-I)][Pra][NMeAib]L[NMeD]-Piperidide; lactam N-11), the half-maximal inhibitory concentration (IC50) was determined as 130 nM.

Consider `CC[C@H](C)[C@@H]1NC(=O)[C@H](CC(C)C)N(C)C(=O)C[C@H]2CCCN2C(=O)[C@H](C2CCCCC2)N(C)C(=O)C2(CCCC2)NC(=O)[C@@H]2CCCN2C(=O)[C@H](CCc2ccc(C(F)(F)F)c(Cl)c2)NC(=O)CN(C)C(=O)[C@H](CC2CCCCC2)N(C)C(=O)CN(C)C(=O)CN(C)C1=O` [Compound 1185] (cyclo([Ac5c][NMeChg][d(β3hP)][NMeL]I[Sar][Sar][NMeCha][Sar][hPhe(3-Cl-4-CF3)]P)), for which the half-inhibitory concentration (IC50) stood at 11 nM.

Turning to `CC[C@H](C)[C@@H]1NC(=O)[C@H](CC(C)C)N(C)C(=O)C[C@@H](C(=O)N2CCCCC2)N(C)C(=O)[C@H](C2CCCCC2)N(C)C(=O)C2(CCCC2)NC(=O)[C@@H]2CCCN2C(=O)[C@H](CCc2ccc(C(F)(F)F)c(Cl)c2)NC(=O)CN(C)C(=O)[C@H](CC2CCCCC2)N(C)C(=O)[C@H](C)N(C)C(=O)CN(C)C1=O` [Compound 1186] ([NMeL]I[Sar][NMeA][NMeCha][Sar][hPhe(3-Cl-4-CF3)]P[Ac5c][NMeChg][NMeD]-Piperidide; lactam N-11), the IC50 came out at 8.6 nM.

`CCCC[C@@H]1NC(=O)[C@H](Cc2c(F)cccc2F)NC(=O)CN(C)C(=O)[C@H](Cc2ccc(OC)cc2)N(C)C(=O)[C@@H]2CCN2C(=O)[C@H](C)N(C)C(=O)[C@H]([C@@H](C)CC)NC(=O)[C@H](CC)N(C)C(=O)C[C@@H](C(=O)N2CCCCC2)N(C)C(=O)[C@H](CC(C)C)NC(=O)C(C)(C)N(C)C1=O` [Compound 1187] ([NMeAbu]I[NMeA][Aze][NMeY](Me)[Sar][Phe(2,6-F2)][Nle][NMeAib]L[NMeD]-Piperidide; lactam N-11): the IC50 was 99 nM.

Consider `CC[C@H](C)[C@@H]1NC(=O)[C@H](CC(C)C)N(C)C(=O)C[C@@H](C(=O)N2CCN(C3COC3)CC2)NC(=O)[C@H]([C@@H](C)CC)N(C)C(=O)C2(CCCC2)NC(=O)[C@@H]2CCCN2C(=O)[C@H](CCc2ccc(C(F)(F)F)c(Cl)c2)NC(=O)CN(C)C(=O)[C@H](CC2CCCCC2)N(C)C(=O)CN(C)C(=O)CN(C)C1=O` [Compound 1191] ([NMeL]I[Sar][Sar][NMeCha][Sar][hPhe(3-Cl-4-CF3)]P[Ac5c][NMeI]D-{Piperazinyl(4-(3-oxetanyl))}; lactam N-11), for which the IC50 is 6.7 nM.

For the compound `CC[C@H](C)[C@@H]1NC(=O)[C@H](CC(C)C)N(C)C(=O)C[C@@H](C(=O)N2CCCC2)N(C)C(=O)[C@H](C2CCCCC2)N(C)C(=O)C2(CCC2)NC(=O)[C@@H]2CC(F)(F)CN2C(=O)[C@H](CCc2cc(F)c(C(F)(F)F)c(F)c2)NC(=O)CN(C)C(=O)[C@H](CC2CCCCC2)N(C)C(=O)CN(C)C(=O)CN(C)C1=O` [Compound 1192] ([NMeL]I[Sar][Sar][NMeCha][Sar][hPhe(3,5-F2-4-CF3)][Pro(4,4-F2)][Ac4c][NMeChg][NMeD]-Pyrrolidide; lactam N-11), the IC50 is 0.39 nM.

With `CC[C@H](C)[C@@H]1NC(=O)[C@H](CC(C)C)N(C)C(=O)C[C@@H](C(=O)N2CCOCC2)N(C)C(=O)[C@H](C2CCCCC2)N(C)C(=O)C2(CCCC2)NC(=O)[C@@H]2CC(F)(F)CN2C(=O)[C@H](CCc2ccc(C(F)(F)F)c(Cl)c2)NC(=O)CN(C)C(=O)[C@H](CC2CCCCC2)N(C)C(=O)CN(C)C(=O)CN(C)C1=O` [Compound 1194] ([NMeL]I[Sar][Sar][NMeCha][Sar][hPhe(3-Cl-4-CF3)][Pro(4,4-F2)][Ac5c][NMeChg][NMeD]-Morpholide; lactam N-11), the IC50 is 0.52 nM.

What is called IC50 is the point on the concentration scale where inhibition reaches its midpoint.
